Results: ChEMBL document CHEMBL1132639, “2-Amino-4-benzyl-4,5,6,7-tetrahydrothiazolo[5,4-c]pyridines: novel selective beta3-adrenoceptor agonists” (J Med Chem, 1999)
Blank lines part the entries; values can stand above or below the compound they belong to. Activity calls are given as the source filed them. The calls are words filed in the database; no cut-off is given here.

What was measured:
[1] = biological target: Beta-2 adrenergic receptor (Homo sapiens) (UniProt P07550); assay: Drug concentration which produces cAMP response equal to 50% of its maximal response against human beta-2-adrenoceptor in chinese hamster ovary cells was determined; Not active; assay type: functional, cell-based
Sequence of Beta-2 adrenergic receptor (Homo sapiens) (P07550 whole entry, looked up): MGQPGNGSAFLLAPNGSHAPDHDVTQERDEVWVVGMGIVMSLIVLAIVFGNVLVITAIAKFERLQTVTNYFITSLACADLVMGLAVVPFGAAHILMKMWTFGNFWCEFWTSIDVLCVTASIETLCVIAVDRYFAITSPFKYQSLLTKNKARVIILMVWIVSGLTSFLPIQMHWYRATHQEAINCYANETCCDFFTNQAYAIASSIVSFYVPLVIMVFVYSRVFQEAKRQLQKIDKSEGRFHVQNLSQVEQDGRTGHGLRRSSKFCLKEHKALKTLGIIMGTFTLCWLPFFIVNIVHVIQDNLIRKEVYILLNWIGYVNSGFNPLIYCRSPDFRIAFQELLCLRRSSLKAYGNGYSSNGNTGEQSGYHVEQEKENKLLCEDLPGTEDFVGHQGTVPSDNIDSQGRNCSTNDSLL

[2] = biological target: T1, Beta-3 adrenergic receptor (Homo sapiens, UniProt P13945); assay: Drug concentration which produces cAMP response equal to 50% of its maximal response against human beta-3-adrenoceptor in chinese hamster ovary cells was determined; Not active; assay type: functional, cell-based
Target sequence in this assay (P13945 whole entry, looked up): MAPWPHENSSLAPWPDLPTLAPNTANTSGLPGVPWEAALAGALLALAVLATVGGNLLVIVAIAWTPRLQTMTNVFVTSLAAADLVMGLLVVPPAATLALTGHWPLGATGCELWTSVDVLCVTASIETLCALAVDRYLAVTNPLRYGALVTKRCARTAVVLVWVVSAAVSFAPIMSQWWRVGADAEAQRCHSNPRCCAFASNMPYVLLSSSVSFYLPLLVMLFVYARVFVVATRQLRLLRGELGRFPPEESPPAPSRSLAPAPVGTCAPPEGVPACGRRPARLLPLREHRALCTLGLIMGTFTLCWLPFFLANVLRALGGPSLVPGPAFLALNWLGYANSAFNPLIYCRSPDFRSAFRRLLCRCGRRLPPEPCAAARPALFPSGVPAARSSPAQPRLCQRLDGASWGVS

[3] = biological target: Beta-1 adrenergic receptor (Homo sapiens) (UniProt P08588); details: ovary
Sequence of Beta-1 adrenergic receptor (Homo sapiens) (P08588 whole entry, looked up): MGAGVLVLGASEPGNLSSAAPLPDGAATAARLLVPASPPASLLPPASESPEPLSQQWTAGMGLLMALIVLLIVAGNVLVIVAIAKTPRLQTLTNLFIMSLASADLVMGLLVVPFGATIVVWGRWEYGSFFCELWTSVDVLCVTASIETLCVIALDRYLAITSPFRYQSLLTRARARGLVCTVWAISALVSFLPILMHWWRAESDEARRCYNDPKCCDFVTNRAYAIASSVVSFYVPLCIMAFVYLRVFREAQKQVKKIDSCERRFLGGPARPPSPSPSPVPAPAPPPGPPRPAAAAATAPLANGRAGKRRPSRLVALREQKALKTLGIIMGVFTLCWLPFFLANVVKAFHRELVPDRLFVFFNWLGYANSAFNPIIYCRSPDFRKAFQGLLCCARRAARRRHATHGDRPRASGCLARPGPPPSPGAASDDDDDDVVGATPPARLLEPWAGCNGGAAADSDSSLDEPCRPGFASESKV

[4] = biological target: T1, Beta-3 adrenergic receptor; details: ovary
Target sequence in this assay (P13945 whole entry, looked up): as the sequence (P13945 whole entry, looked up) above
Description: Drug concentration which produces cAMP response equal to 50% of its maximal response against human beta-3-adrenoceptor expressed in chinese hamster ovary cells was determined

[5] = biological target: T1, Beta-3 adrenergic receptor; assay: Intrinsic activity expressed as the percentage of maximal analogue response relative to the maximal response(100%) of isoproterenol against human beta-3-adrenoceptor using CRE-LUC assay; assay type: functional
Target sequence in this assay (P13945 whole entry, looked up): as above

[6] = biological target: T1, Beta-3 adrenergic receptor; assay: Drug concentration which produces a cAMP response equal to 50% of its maximal response against human beta-3-adrenoceptor using CRE-LUC assay; assay type: functional
Target sequence in this assay (P13945 whole entry, looked up): as above

[7] = biological target: Beta-1 adrenergic receptor (Homo sapiens) (UniProt P08588)
[8] = biological target: Beta-2 adrenergic receptor (Homo sapiens) (UniProt P07550); details: ovary
[9] = biological target: T1, Beta-3 adrenergic receptor; assay: Drug concentration which produces cAMP response equal to 50% of its maximal response against human beta 3-adrenoceptor in chinese hamster ovary cells was determined; assay type: functional, cell-based
Target sequence in this assay (P13945 whole entry, looked up): as above

[10] = biological target: Beta-2 adrenergic receptor (Homo sapiens) (UniProt P07550)
[11] = biological target: Beta-1 adrenergic receptor (Homo sapiens) (UniProt P08588); assay: Intrinsic activity expressed as the percentage of maximal analogue response relative to the maximal response(100%) of isoproterenol against human beta-1-adrenoceptor; assay type: functional
[12] = biological target: T1, Beta-3 adrenergic receptor; assay: Intrinsic activity expressed as the percentage of maximal analogue response relative to the maximal response(100%) of isoproterenol against human beta-3-adrenoceptor; assay type: functional
Target sequence in this assay (P13945 whole entry, looked up): as above

[13] = biological target: Beta-1 adrenergic receptor (Homo sapiens) (UniProt P08588); details: ovary; remark: listed apart in the source
Description: Drug concentration which produces cAMP response equal to 50% of its maximal response against human beta-1-adrenoceptor in chinese hamster ovary cells was determined

[14] = biological target: Beta-2 adrenergic receptor (Homo sapiens) (UniProt P07550); details: ovary; remark: listed apart in the source
[15] = biological target: T1, Beta-3 adrenergic receptor; assay: Binding Affinity against human Beta-3 adrenergic receptor expressed in Chinese hamster ovary(CHO) cells was measured by using [125I]ICYP radioligand; assay type: cell-based
Target sequence in this assay (P13945 whole entry): as the sequence (P13945 whole entry, looked up) above

[16] = biological target: Beta-1 adrenergic receptor (Homo sapiens) (UniProt P08588); assay: Intrinsic activity expressed as the percentage of maximal analogue response relative to the maximal response(100%) of isoproterenol against human beta-1-adrenoceptor using CRE-LUC assay; assay type: functional

Compound: CC(C)NCC(O)c1ccc(O)c(O)c1 (stereo not drawn)
- pKact [4]: 7.37

Compound: COc1cc(CC2NCCc3nc(N)sc32)cc(OC)c1OC (stereo not drawn)
- pKact [1]: inactive
- Intrinsic activity [11]: < 10
- Intrinsic activity [12]: 54
- pKact [3]: inactive
- pKact [4]: 5.06

Compound: COc1cc(C[C@@H]2NCCc3cc(O)c(O)cc32)cc(OC)c1OC
- pKact [13]: 8.7
- pKact [14]: 8.33
- pKact [4]: 8.6

Compound: COc1cc(CCNCCc2cnc(N)s2)cc(OC)c1OC
- pKact [1]: inactive
- Intrinsic activity [5]: < 10
- pKact [2]: inactive
- pKact [3]: inactive
- Intrinsic activity [16]: < 10

More lines, now with the values ahead:

- pKact [1]: inactive
- pKact [2]: inactive
- pKact [3]: inactive
Compound: COc1c(I)cc(CC2NCCc3nc(NC(C)=O)sc32)cc1I (stereo not drawn)

- Intrinsic activity [5]: 62
- pKact [6]: 6.71
- pKact [7]: inactive
- pKact [8]: inactive
- pKact [9]: 6.95
- pKact [3]: inactive
- pKact [10]: inactive
Compound: COc1c(I)cc(CC2NCCc3nc(N)sc32)cc1I (stereo not drawn)

- Ki [15]: 21.4 nM
- pKact [13]: 8.11
- pKact [14]: 8.47
- pKact [4]: 8.76
Compound: COc1c(I)cc(CC2NCCc3cc(O)c(O)cc32)cc1I (stereo not drawn)
